Reference: article PMC13478508 (Research, 2026)
No end group written: not given here.

B1: human Kir6.2 (Q52E) subunit of the cleaved KATP fusion protein (natural protein)
chain: GPLSRKGIIPEEYVLTRLAEDPAKPRYRARQRRARFVSKKGNCNVAHKNIREEGRFLQDVFTTLVDLKWPHTLLIFTMSFLCSWLLFAMAWWLIAFAHGDLAPSEGTAEPCVTSIHSFSSAFLFSIEVQVTIGFGGRMVTEECPLAILILIVQNIVGLMINAIMLGCIFMKTAQAHRRAETLIFSKHAVIALRHGRLCFMLRVGDLRKSMIISATIHMQVVRKTTSPEGEVVPLHQVDIPMENGVGGNSIFLVAPLIIYHVIDANSPLYDLAPSDLHHHQDLEIIVILEGVVETTGITTQARTSYLADEILWGQRFVPIVAEEDGRYSVDYSKFGNTVKVPTPLCTARQLDEDHSLLEALTLASARGPLRKRSVPMAKAKPKFSISPDSLS
notes: also called hsKir6.2; hsKir6.2 (Q52E)

Tests used:
[1] = test system: hsKir6.2+maSUR1 KATP channel; experiment: Whole-cell patch clamp of KATP channel currents in transfected FreeStyle 293-F cells; type: cell-based, Homo sapiens (Kir6.2) / Mesocricetus auratus (SUR1); conditions: 1 μM toxin; whole-cell patch clamp at −40 mV; 5 mM BaCl2 baseline; result in words (Fig. 1A, 3H, 5B)
Method: KATP constructs were transfected into FreeStyle 293-F cells using polyethylenimine at a cell density of 1 × 10^6 cells/ml. Cells were cultured in FreeStyle 293 Expression Medium with 1% fetal bovine serum for 24 h before recording. Currents were recorded using whole-cell mode at −40 mV in the pipette and an Axon-patch 200B amplifier (Axon Instruments, USA). Patch electrodes were pulled by a horizontal microelectrode puller (P-1000, Sutter Instrument Co, USA) to tip resistance of 2.0 to 3.0 MΩ. Pipette solution containing 107 mM KCl, 1.2 mM MgCl2, 1 mM CaCl2, 10 mM EGTA, 5 mM Hepes (pH 7.2, KOH), and bath solution containing 40 mM KCl, 100 mM NaCl, 2.6 mM CaCl2, 1.2 mM MgCl2, and 5 mM Hepes (pH 7.4, NaOH) were used for measuring inhibitory effect of wild-type and mutant toxins. Application of 5 mM BaCl2 in bath solution was used to block the KATP currents to determine the baseline. Data analysis was carried out using GraphPad Prism 8.0 or 10.4.0.

cryo-EM structure = target: the molecule itself; experiment: cryo-EM structure

Molecule	Inhibition of whole-cell KATP current [1]	stoichiometry N (cryo-EM structure)
Sm3a: toxin from the centipede Scolopendra morsitans (P0DQC2.1), recombinantly expressed; novel KATP channel blocker (AKKEIPYKRQKFPKKSQCIEACANALTNGDKSKITDVKSRFYKCICYYNP; also: two disulfide bonds, pairing not given here for this toxin)	strongly blocks currents	–
B1	–	4
